Consider 29 compounds from patent US20100119599A1 (ARCHER PHARMACEUTICALS, INC., priority 2006, published 2010).

Structures are written as SMILES.

For experiment [1], the system named is Aβ1-40. Put plainly: Measurement of Aβ1-40 in culture medium of 7W WT APP751 CHO cells by ELISA. In kind it is cell-based, Chinese hamster. The conditions noted are these: for activity at 5 µM: Cricetulus griseus, Table 1, 5 μM test compound, CHO cells stably transfected with human APP751, culture medium, ELISA, control DMSO, 0 = no detectable amount; for Aβ1-40 (% of control): CHO cells that overexpress APP751, zero = below the detection limit of the assay. Background: In an ELISA, binding on a coated surface is turned into a signal by an enzyme label.

Experiment [2] has as its system Aβ1-42. In words: Measurement of Aβ1-42 in culture medium of 7W WT APP751 CHO cells by ELISA. In kind it is cell-based, Chinese hamster. The conditions noted are these: for activity at 5 µM: Cricetulus griseus, Table 1, 5 μM test compound, CHO cells stably transfected with human APP751, culture medium, ELISA, control DMSO, 0 = no detectable amount, read-out: Aβ1-42 (% of control); for Aβ1-42 (% of control): CHO cells that overexpress APP751, zero = below the detection limit of the assay.
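Further: 5 µM test compound but RI-coded compounds at 10 µM for 24 hours.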

Turning to `COC(=O)C1=C(C)NC2=C(C(=O)CC(c3cccs3)C2)C1c1ccc(Cl)c(Cl)c1` (stereo not shown) [ST052414, methyl 4-(3,4-dichlorophenyl)-2-methyl-5-oxo-7-(2-thienyl)-1,4,6,7,8-pentahydroquinoline-3-carboxylate], the activity at 5 µM in experiment [1] worked out at 70.2%; in experiment [2] it was 66.9%.

With `COCCOC(=O)C1=C(C)NC2=C(C(=O)CC(C)(C)C2)C1c1ccc(C(C)C)cc1` (stereo not shown) [ST052313, 2-methoxyethyl 2,7,7-trimethyl-4-[4-(methylethyl)phenyl]-5-oxo-1,4,6,7,8-pentahydroquinoline-3-carboxylate], the activity at 5 µM in experiment [1] is 26.3%; in experiment [2] it was 23.4%.

For `CC1=C(C(=O)OC2CCCCC2)C(c2ccc(Cl)c(Cl)c2)C2=C(CC(c3ccccc3)CC2=O)N1` (stereo not shown) [ST013350, cyclohexyl 4-(3,4-dichlorophenyl)-2-methyl-5-oxo-7-phenyl-1,4,6,7,8-pentahydroquinoline-3-carboxylate], the figures for the activity at 5 µM in experiment [1] and in experiment [2] were 25.1% and 95.6%, respectively.

With `CC1=C(C(=O)OCc2ccccc2)C(c2ccccc2I)C2=C(CC(C)(C)CC2=O)N1` (stereo not shown) [ST216858, phenylmethyl 4-(2-iodophenyl)-2,7,7-trimethyl-5-oxo-1,4,6,7,8-pentahydroquinoline-3-carboxylate], the activity at 5 µM stood at 30.1% in experiment [1] and 61.5% in experiment [2].

Consider `COc1cc(/C=c2\sc3n(c2=O)C(N)=C(C#N)C(c2ccc(OC(C)C)c(OC)c2)C=3C#N)ccc1OC(C)C` (stereo not shown) [ST025029, 5-amino-7-[3-methoxy-4-(methylethoxy)phenyl]-2-{[3-methoxy-4-(methylethoxy)phenyl]methylene}-3-oxo-4,7-dihydro-1,3-thiazolidino[3,2-a]pyridine-6,8-dicarbonitrile], for which, in experiment [1], the “Aβ1-40 (% of control)” value is on record as 65.7 % of control. The “Aβ1-42 (% of control)” value in experiment [2] is reported as 73.69 % of control.

Take `COc1ccc(C2C(C(=O)OC(C)C)=C(C)NC3=C2C(=O)CC(c2ccccc2)C3)c(OC)c1` (stereo not shown) [ST017229, methylethyl 4-(2,4-dimethoxyphenyl)-2-methyl-5-oxo-7-phenyl-1,4,6,7,8-pentahydroquinoline-3-carboxylate]: the activity at 5 µM in experiment [1] was determined as 63.1%; in experiment [2], 98.7%.

`CC1=C(C(=O)OCCOc2ccccc2)C(c2ccc(Cl)cc2Cl)C2=C(CC(C)(C)CC2=O)N1` (stereo not shown) [ST015067, 2-phenoxyethyl 4-(2,4-dichlorophenyl)-2,7,7-trimethyl-5-oxo-1,4,6,7,8-pentahydroquinoline-3-carboxylate]: the activity at 5 µM is 4.89% in experiment [1] and 43.9% in experiment [2].

Take `CCCOc1ccccc1C1C(C(=O)OCC(C)C)=C(C)NC2=C1C(=O)CC(c1ccc(Cl)cc1)C2` (stereo not shown) [ST017026, 2-methylpropyl 7-(4-chlorophenyl)-2-methyl-5-oxo-4-(2-propoxyphenyl)-1,4,6,7,8-pentahydroquinoline-3-carboxylate]: the results for the activity at 5 µM in experiment [1] and in experiment [2] were 40.6% and 80.6%, respectively.

With `CC1=C(C(=O)OCCOc2ccccc2)C(c2ccccc2Cl)C2=C(CC(C)(C)CC2=O)N1` (stereo not shown) [ST015096, 2-phenoxyethyl 4-(2-chlorophenyl)-2,7,7-trimethyl-5-oxo-1,4,6,7,8-pentahydroquinoline-3-carboxylate], the activity at 5 µM in experiment [1] was found to be 28.1%; in experiment [2], 80%.

With `CCOC(=O)C1=C(C)NC2=C(C(=O)CC(C)(C)C2)C1c1ccc(Cl)cc1Cl` (stereo not shown) [ST020008, ethyl 4-(2,4-dichlorophenyl)-2,7,7-trimethyl-5-oxo-1,4,6,7,8-pentahydroquinoline-3-carboxylate], the activity at 5 µM in experiment [1] was 61.7%; in experiment [2] it was 95.7%.

Take `N#CC1=C(N)NC(S)=C(C#N)C1c1cccc(Br)c1` (stereo not shown) [ST014065, 6-amino-4-(3-bromophenyl)-2-sulfanyl-1,4-dihydropyridine-3,5-dicarbonitrile]: in experiment [1], the “Aβ1-40 (% of control)” value was 18.6 % of control. In addition, the “Aβ1-42 (% of control)” value in experiment [2] is listed as 30.01 % of control.

Regarding `CCc1ccc(C2C(C(=O)OCCOc3ccccc3)=C(C)NC3=C2C(=O)CC(C)(C)C3)cc1` (stereo not shown) [ST014886, 2-phenoxyethyl 4-(4-ethylphenyl)-2,7,7-trimethyl-5-oxo-1,4,6,7,8-pentahydroquinoline-3-carboxylate], the values for the activity at 5 µM in experiment [1] and in experiment [2] were 21.6% and 65.1%, respectively.

For the compound `CCc1ccc(C2C(C(=O)OC3CCCC3)=C(C)NC3=C2C(=O)CC(C)(C)C3)cc1` (stereo not shown) [ST013227, cyclopentyl 4-(4-ethylphenyl)-2,7,7-trimethyl-5-oxo-1,4,6,7,8-pentahydroquinoline-3-carboxylate], the figures for the activity at 5 µM in experiment [1] and in experiment [2] were 0% and 92.7%, respectively.

For the compound `CC1=C(C(=O)OCCc2ccccc2)C(c2ccc(Cl)cc2Cl)C2=C(CCCC2=O)N1` (stereo not shown) [ST014884, 2-phenylethyl 4-(2,4-dichlorophenyl)-2-methyl-5-oxo-1,4,6,7,8-pentahydroquinoline-3-carboxylate], the results for the activity at 5 µM in experiment [1] and in experiment [2] were 62% and 52.8%, respectively.

In the case of `CC1=C(C(=O)Nc2ccc(Cl)cc2)C(c2ccsc2)C(C#N)=C(SCC(=O)Nc2cccc(C)c2)N1` (stereo not shown) [RI_14], in experiment [1], the “Aβ1-40 (% of control)” value is reported as 56.3 % of control. Further, the “Aβ1-42 (% of control)” value in experiment [2] is recorded as 64.1 % of control.

Regarding `C=CCOC(=O)C1=C(C)NC2=C(C(=O)CCC2)C1c1cccc(OC)c1` (stereo not shown) [ST013199, prop-2-enyl 4-(3-methoxyphenyl)-2-methyl-5-oxo-1,4,6,7,8-pentahydroquinoline-3-carboxylate], the activity at 5 µM in experiment [1] is 68.5%; in experiment [2], 86.7%.

Take `C=CCOC(=O)C1=C(C)NC(S)=C(C#N)C1c1cccnc1` (stereo not shown) [ST011596, prop-2-enyl 5-cyano-2-methyl-4-(3-pyridyl)-6-sulfanyl-1,4-dihydropyridine-3-carboxylate]: the “Aβ1-40 (% of control)” value in experiment [1] is 66.77 % of control. In addition, in experiment [2], the “Aβ1-42 (% of control)” value is on record as 86.14 % of control.

For `CCCCCCNC(=O)CSC1=C(C#N)C(c2ccccc2)C(C(=O)Nc2ccc(Cl)cc2)=C(C)N1` (stereo not shown) [RI_35], the “Aβ1-40 (% of control)” value in experiment [1] was 55.4 % of control. For the same compound, the “Aβ1-42 (% of control)” value in experiment [2] is given as 78.6 % of control.

On to `CC1=C(C(=O)OCC(C)C)C(c2ccc3c(c2)OCO3)C2=C(CC(c3ccccc3)CC2=O)N1` (stereo not shown) [ST016978, 2-methylpropyl 4-(2H-benzo[3,4-d]1,3-dioxolen-5-yl)-2-methyl-5-oxo-7-phenyl-1,4,6,7,8-pentahydroquinoline-3-carboxylate], for which the activity at 5 µM in experiment [1] worked out at 45.9%; in experiment [2], 99.5%.

As to `COCCOC(=O)C1=C(C)NC2=C(C(=O)CC(C)(C)C2)C1c1cccnc1` (stereo not shown) [ST017252, 2-methoxyethyl 2,7,7-trimethyl-5-oxo-4-(3-pyridyl)-1,4,6,7,8-pentahydroquinoline-3-carboxylate], the activity at 5 µM in experiment [1] turned out to be 89.6%; in experiment [2], 70.5%.

For `CCCOCCOC(=O)C1=C(C)NC2=C(C(=O)CC(C)(C)C2)C1c1ccc(Cl)c(Cl)c1` (stereo not shown) [ST052446, 2-propoxyethyl 4-(3,4-dichlorophenyl)-2,7,7-trimethyl-5-oxo-1,4,6,7,8-pentahydroquinoline-3-carboxylate], the activity at 5 µM came to 58.1% in experiment [1] and 45.2% in experiment [2].

As to `CCc1cccc(NC(=O)CSC2=C(C#N)C(c3cc4cccnc4s3)C(C(=O)Nc3ccccc3)=C(C)N2)c1` (stereo not shown) [RI_84], the “Aβ1-40 (% of control)” value in experiment [1] is reported as 64.2 % of control. The “Aβ1-42 (% of control)” value in experiment [2] is given as 44.5 % of control.

For the compound `CCCCOC(=O)C1=C(C)NC2=C(C(=O)CCC2)C1c1cccc(Cl)c1` (stereo not shown) [ST013428, butyl 4-(3-chlorophenyl)-2-methyl-5-oxo-1,4,6,7,8-pentahydroquinoline-3-carboxylate], the activity at 5 µM was 25.1% in experiment [1] and 40.9% in experiment [2].

On to `CCOCCOC(=O)C1=C(C)NC2=C(C(=O)CCC2)C1c1coc2ccccc2c1=O` (stereo not shown) [ST052370, 2-ethoxyethyl 2-methyl-5-oxo-4-(4-oxochromen-3-yl)-1,4,6,7,8-pentahydroquinoline-3-carboxylate], for which the activity at 5 µM was determined as 68.6% in experiment [1] and 69.7% in experiment [2].

With `CC1=C(C(=O)OCCc2ccccc2)C(c2ccc(C)cc2)C2=C(CCCC2=O)N1` (stereo not shown) [ST015076, 2-phenylethyl 2-methyl-4-(4-methylphenyl)-5-oxo-1,4,6,7,8-pentahydroquinoline-3-carboxylate], the activity at 5 µM in experiment [1] is 58.9%; in experiment [2], 98.6%.

Take `COc1ccc(COC(=O)C2=C(C)NC3=C(C(=O)CC(C)(C)C3)C2c2cc3c(cc2[NH+]([O-])O)OCO3)cc1` (stereo not shown) [ST017054, (4-methoxyphenyl)methyl 2,7,7-trimethyl-4-(6-nitro(2H-benzo[d]1,3-dioxolan-5-yl))-5-oxo-1,4,6,7,8-pentahydroquinoline-3-carboxylate]: the activity at 5 µM came to 46.5% in experiment [1] and 9.54% in experiment [2].

Consider `CCOC(=O)C1=C(C)NC(C)=C(C(=O)OCC)C1c1cccc(NC(=O)C(F)(F)F)c1` [ST003836, ethyl 5-(ethoxycarbonyl)-2,6-dimethyl-4-[3-(2,2,2-trifluoroacetylamino)phenyl]-1,4-dihydropyridine-3-carboxylate], for which the “Aβ1-40 (% of control)” value in experiment [1] is given as 45.34 % of control. Also, the “Aβ1-42 (% of control)” value in experiment [2] is reported as 83.98 % of control.

As to `COc1ccc(C2C(C(=O)OC3CCCC3)=C(C)NC3=C2C(=O)CC(c2cccs2)C3)c(OC)c1OC` (stereo not shown) [ST051571, cyclopentyl 2-methyl-5-oxo-7-(2-thienyl)-4-(2,3,4-trimethoxyphenyl)-1,4,6,7,8-pentahydroquinoline-3-carboxylate], the activity at 5 µM in experiment [1] was 40.4%; in experiment [2], 62.1%.

As to `CCOC(=O)C1=C(C)NC2=C(C(=O)CCC2)C1c1ccc(OCc2ccc(Cl)cc2)c(OC)c1` (stereo not shown) [ST028598, ethyl 4-{4-[(4-chlorophenyl)methoxy]-3-methoxyphenyl}-2-methyl-5-oxo-1,4,6,7,8-pentahydroquinoline-3-carboxylate], the activity at 5 µM in experiment [1] is 27.4%; in experiment [2] it was 71.6%.
